Test results: patent US8367716B2 (priority 2003, dated 2013)

What was measured:
S. aureus DK825 = assay: Effect on growth rate and cell count of S. aureus; type: cell-based, Staphylococcus aureus
Description: Effect on growth rate of S. aureus. S. aureus DK825 was subcultured from glycerol stocks onto a blood agar plate and incubated at 37° C. for 18 h. A single colony was then inoculated into 5 ml TSB broth (supplemented with 0.25% glucose) and incubated at 37° C. for 24 h with shaking at 250 rpm. From a 10^−3 dilution of the overnight culture a 100 μl aliquot was inoculated into tubes containing 5 ml TSB broth resulting in an initial cell count of […] (confirmed by plating). For “treated” samples, an appropriate aliquot of c-di-GMP was added to give 200 μM c-di-GMP (final concentration). As a negative “untreated” control, tubes containing TSB and a similar volume of 0.9% NaCl were included in the studies. At time zero, 50 μl from each sample was plated on blood agar plates to determine the initial cfu/ml. […]

S. aureus = assay: Tube agglutination assay and light microscopy (cell-to-cell aggregation); type: cell-based, Staphylococcus aureus
Description: Tube agglutination assay and light microscopy. Colonies from a 18 h blood agar plate were inoculated into 1 ml PBS to make a 0.5 McFarland standard containing ˜5×10^8 cfu/ml (confirmed by plate count). A 5 μl aliquot from the 0.5 McFarland standard was then inoculated into 5 ml polystyrene tubes containing 1 ml TSB representing ˜10^5 cfu/ml (confirmed by plate count). These tubes were inoculated either with 50 μl c-di-GMP to give a 200 μM c-di-GMP final concentration representing a “treated” sample or inoculated with 50 μl 0.9% NaCl as a control and representing an “untreated” control. Cultures were incubated at 37° C. for 24 h statically. Following incubation, these cultures were examined macroscopically and microscopically (Zeiss Axioskop) for the presence or absence of visible cell-to-cell clumping.

[1] = system: S. aureus strain DK825 adherence to HeLa cells; assay: Epithelial cell assay (bacterial adherence to HeLa cells); type: cell-based, Staphylococcus aureus
Description: Epithelial cell assay. HeLa cells (ATCC CCL2) were grown to confluence in complete medium (10% FBS from Sigma, DMEM/F12 with glutamine from Invitrogen and 50 μg/ml gentamicin) and were trypsinized with 0.1% trypsin-EDTA. Approximately 1×10^5 HeLa cells were seeded in each well of a chamber slide and then the HeLa cells were incubated at 37° C. in 5% CO2 for at least 18 h until 85% confluent. Prior to infection, the HeLa cells were washed twice with warm PBS and then 500 μl warm FMEM/F12 was added to each well. For the bacterial adherence assay, an overnight culture of S. aureus strain DK825 was grown overnight in 5 ml LB broth at 37° C. with shaking at 250 rpm. Following incubation, 1 ml of the overnight culture was pelleted, washed twice with PBS and resuspended in 1 ml of PBS. The HeLa cells in the wells were washed twice with 500 μl of HBSS and aliquots of DMEM with the desired final concentration of c-di-GMP (0-, 2-, 20- and 200 μM) were prepared. DMEM (500 μl) containing the respective concentrations of c-di-GMP was inoculated into the wells containing HeLa cells followed by the addition of 10 μl (˜10^7 cells) S. aureus (MOI HeLa:bacteria˜1:100). The epithelial cell assay was incubated in CO2 for 45 min. Following incubation the cells were washed twice with 500 μl PBS and fixed with 2% formalin for 20 min. The cells were again washed twice with PBS and stained with Giemsa stain for 10 seconds, washed three times with PBS, then the cells covered with 40 μl of 90% glycerol in water and a cover slip was placed. The slides were observed under a light microscope (Zeiss Axioskop) at 630×mag. The level of bacterial adherence to 100 individual HeLa cells was calculated for each duplicate treatment and the average determined.

HeLa cells = assay: HeLa cell toxicity (cell morphology); type: cell-based, human
Description: Safety and toxicity assays. For HeLa cell toxicity studies, various concentrations (0-, 25-, 50-, 100-, 200- and 400 μM) of c-di-GMP were tested in separate wells of chamber slides containing HeLa cells prepared as described above in complete media (in the absence of bacteria). HeLa cell morphology was examined microscopically after 12-, 24- and 48 h incubation. The potential lethality of c-di-GMP administered to mice was also examined. In these studies, adult female CD-1 mice and 5 day old infant mice were inoculated orally with 50 μL of 200 μM c-di-GMP and examined 24 h after c-di-GMP treatment.

V. cholerae N16961 = assay: Crystal violet quantitative biofilm assay in glass test tubes; type: cell-based, Vibrio cholerae
[2] = system: S. aureus Newbould 305 strain; assay: Mouse mastitis model of S. aureus infection; type: in vivo, Staphylococcus aureus
Description: A mouse mastitis model of S. aurreus infection using the S. aureus Newbould 305 strain (Brouillette et al., 2003, 2004a and 2004b) was used to show the effectiveness of treatment with c-di-GMP. Three mice per group and two glands per mouse were used for a total of six samples per treatment. 100 CFU (colony forming units) of S. aureus Newbould 305 strain were inoculated into each mammary gland. Five or 50 nanomoles of c-di-GMP was administered by injection twice into each mammary gland at 0 hr. (pre-mixed with the S. aureus inoculum in 100 μl volume, i.e., 50 or 500 μM concentration) and at 4 hr. post-infection (in 50 μl, i.e., 100 or 1000 μM). The mammary glands were harvested at 10 hrs. post-infection. Considering the volume of the mammary gland with milk to be about 250 μl, the final concentration of c-di-GMP in the mammary gland at each injection was estimated to be 20 μM or 200 μM.

Nc1nc2c(ncn2C2OC3COP(=O)(O)OC4C(COP(=O)(O)OC3C2O)OC(n2cnc3c(=O)[nH]c(N)nc32)C4O)c(=O)[nH]1 (stereo not drawn) [c-di-GMP, 3′,5′-cyclic diguanylic acid]
final cell count (S. aureus DK825; 200 μM, 24 h static culture, no difference to untreated): 6×10^8 CFU/ml
effect on growth rate (S. aureus DK825; 200 μM, hourly examination up to 8 h): no obvious effect
inhibition of cell viability (S. aureus DK825; as recalled in Example 5 from Example 3): approximately 1 log
cell-to-cell interactions and clumping (Gram stain, light microscopy) (S. aureus; DK825, 200 μM): dramatically less cell-to-cell interactions and clumping
visible cell aggregation (macroscopic) (S. aureus; DK825, 200 μM, 24 h static): no obvious visible cell aggregation or pellet
visible cell aggregation (macroscopic) (S. aureus; bap mutant M556): inhibits cell aggregation
cell-to-cell interactions and clumping (Gram stain, light microscopy) (S. aureus; bovine mastitis strains V329, V299, V315): less intercellular interactions and clumping
effect on adherence to HeLa cells ([1]; 2 μM): did not show any obvious effect
effect on adherence to HeLa cells ([1]; 20 μM): did not show any obvious effect
reduction in adherence ([1]; 200 μM): ~66%
average adherence ([1]; 200 μM, untreated 12 bacteria/cell): 4 bacteria/cell
concentrations relatively noncytotoxic to HeLa cells (HeLa cells): < 400 µM
effect on HeLa cell morphology (HeLa cells; 0-, 25-, 50-, 100-, 200- and 400 μM, 12-, 24- and 48 h): no obvious visible effect
changes in HeLa cell morphology (HeLa cells; 400 μM, 48 h exposure): morphological changes
changes in HeLa cell morphology (HeLa cells; up to 400 μM, 24 h exposure): did not cause any obvious changes in cell morphology
effect on biofilm formation (V. cholerae N16961; N16961 wildtype, 24 h static, LB, dose-dependent): increase biofilm formation
effect on biofilm formation (V. cholerae N16961; RocS mutant): increased biofilm forming activity
effect on CFU counts in the mammary gland ([2]; 5 or 50 nanomoles per injection): significant dose-dependent suppressing effect
inhibition of S. aureus infection of the mammary gland (CFU counts) ([2]; 50 nanomoles injected into mammary gland at 0 and 4 hr., harvest 10 hrs. post-infection): at least 10 fold
expression of enterotoxin 1, Down-regulated (S. aureus strain DK825): 0.35 fold
expression of enterotoxin A, Down-regulated (S. aureus strain DK825): 0.54 fold
expression of toxic shock syndrome toxin, Down-regulated (S. aureus strain DK825): 0.45 fold
expression of PBP-2, Up-regulated (S. aureus strain DK825; 200 μM vs untreated control): 2.0 fold
expression of PBP-4, Up-regulated (S. aureus strain DK825; 200 μM vs untreated control): 1.7 fold
expression of agrA (quorum sensing), Up-regulated (S. aureus strain DK825; 200 μM vs untreated control): 5.4 fold
expression of agrB (quorum sensing), Up-regulated (S. aureus strain DK825; 200 μM vs untreated control): 5.8 fold
expression of agrC (quorum sensing), Up-regulated (S. aureus strain DK825; 200 μM vs untreated control): 2.0 fold
expression of agrD (quorum sensing), Up-regulated (S. aureus strain DK825; 200 μM vs untreated control): 2.2 fold
expression of clfA (clumping factor), Down-regulated (S. aureus strain DK825; 200 μM vs untreated control): 0.54 fold
expression of clfB (clumping factor), Down-regulated (S. aureus strain DK825; 200 μM vs untreated control): 0.43 fold
expression of collagen adhesin, Down-regulated (S. aureus strain DK825; 200 μM vs untreated control): 0.55 fold
expression of exfoliative toxin, Down-regulated (S. aureus strain DK825; 200 μM vs untreated control): 0.52 fold
expression of fbnA (fibrinogen binding), Down-regulated (S. aureus strain DK825; 200 μM vs untreated control): 0.66 fold
expression of fnbB (fibronectin binding), Down-regulated (S. aureus strain DK825; 200 μM vs untreated control): 0.47 fold
expression of icaR (intercellular adhesin), Down-regulated (S. aureus strain DK825; 200 μM vs untreated control): 0.62 fold
expression of rsbW (anti-sigmaB), Up-regulated (S. aureus strain DK825; 200 μM vs untreated control): 4.5 fold
expression of saeR (response regulator), Up-regulated (S. aureus strain DK825; 200 μM vs untreated control): 2.5 fold
expression of saeS (histidine kinase), Up-regulated (S. aureus strain DK825; 200 μM vs untreated control): 1.5 fold
expression of vacuolating cytotoxin, Down-regulated (S. aureus strain DK825; 200 μM vs untreated control): 0.56 fold
